Assay results from patent US20250228826A1, “COMBINATION OF A GREMLIN-1 ANTAGONIST WITH AN INHIBITOR OF RAS-RAF-MEK-ERK SIGNALLING” (UCB BIOPHARMA SRL, priority 2022, published 2025).
Values joined by “and” are separate entries in the source; they are usually repeats but may differ in a detail not shown here. Identical values can stand only once.

Assays:
[1] = test system: pancreatic tumours in KPC mice; assay: Tumour volume by 3D ultrasound imaging in KPC mice (Example 5); assay type: in vivo, mouse
Description: The VisualSonics Vevo 3100 preclinical imaging platform (FUJIFILM VisualSonics, Toronto, Canada) was used for high-resolution ultrasound imaging to confirm tumour diagnosis and for weekly monitoring of tumour progression. Anaesthesia was induced and maintained with a mixture of isoflurane and medical air. Tumour volume was calculated weekly for each mouse and plotted longitudinally.
(§1) Mice were monitored 3 times weekly until a diagnosis of pancreatic cancer was made by abdominal palpation and confirmed by ultrasound imaging. […] Mice were monitored daily and sacrificed when reaching ethical endpoint.
(§2) Statistical assessment of survival of these mice from start of treatment was carried out using a Cox's proportional hazards model to calculate hazard ratios. Tumour volume data at day 7 data were analysed using a linear model suitable for a randomised design, fitting Treatment Tumour volume at day 0 was used as a covariate to increase the precision of the estimates.
The volume of the pancreatic tumours in control or treated KPC mice was measured over time using 3D tumour imaging by ultrasound.

[2] = test system: pancreatic tumours in KPC mice; assay: Survival of KPC mice, Cox's proportional hazards model (Example 5); assay type: in vivo, mouse; conditions: for Median survival: KPC mice, Example 5 cohort (Table 8), Ab7326 mIgG1 30 mg/kg s.c. twice weekly, Selumetinib 25 mg/kg p.o. b.i.d., UCB-554 10 mg/kg p.o. every 2 days; for Hazard ratio Ab7326/treatment: comparator Ab7326 alone
From the text: (§3) LSL-Kras^G12D/+; Trp53^R172H/+; Pdx1-Cre (KPC) mice have been described previously (Hingorani et al., 2005). Mice were generated by crossing mice bearing Pdx1-Cre, and conditional LSL-KrasG12D or LSL-Trp53R172H alleles (strains 01XJ6 and 01XL9, Mouse Models of Human Cancer Consortium [MMHCC], NCI-Frederick, Frederick, MD, USA). Mice on a mixed background were bred in-house at the CRUK Beatson Institute and maintained in conventional caging with environmental enrichment, access to standard chow and water ad libitum. Genotyping was performed by Transnetyx (Cordoba, TN, USA). Mice of both sexes were recruited onto study. All animal experiments were performed under a UK Home Office licence and approved by the University of Glasgow Animal Welfare and Ethical Review Board.
as §1, §2

[3] = test system: pancreatic tumours in KPC mice; assay: Survival of KPC mice from start of treatment, Kaplan-Meier and Log-Rank (Examples 3 and 4); assay type: in vivo; conditions: for Median survival: KPC mice survival cohort
From the text: as §3
Mice were monitored 3 times weekly until a diagnosis of pancreatic cancer was made by abdominal palpation and confirmed by ultrasound imaging. […] There were >12 mice per group. Mice were monitored daily and sacrificed either at 7 days post-initiation of treatment (4 mice per group) or when reaching ethical endpoint (>8 mice per group, symptoms include abdominal distension, cachexia, intermittent hunching or reduced mobility, piloerection, mild diarrhoea, anaemia). Statistical assessment of survival of these mice from start of treatment was carried out by Kaplan-Meier and Log-Rank analysis.
Mice were monitored at least weekly by palpation until pancreatic tumours were detectable.
For the survival cohort (Table 4), high resolution ultrasound imaging was performed weekly over the treatment period in order to monitor the tumour burden of each individual mouse on treatment. Mice remained on study and were closely monitored until ethical endpoint was reached, at which time they were sacrificed as per institutional guidelines.

Compound	tumour volume at day 7 after start of treatment compared to vehicle or Ab7326 treatment alone [1]	survival of KPC mice over vehicle only control or Ab7326 treatment ([2]; Example 5 cohort, in words)	Median survival [2]	Hazard ratio Vehicle/treatment ([2]; Table 9, Example 5 cohort, Cox model, >1 favours treatment)	Hazard ratio Ab7326/treatment ([2]; Table 9, Example 5 cohort, Cox model)	Median survival ([3]; Example 4, same doses as Table 4)	Median survival ([3]; Table 4 (text b395 gives days), Ab7326 mIgG1 30 mg/kg s.c. twice weekly, Selumetinib 25 mg/kg p.o. b.i.d., Selumetinib arm historical data)	Days on Rx ([3]; survival of individual KPC mice on treatment, one line per mouse (Table 6))	Hazard ratio Vehicle/treatment ([2]; Table 10, combined dataset Table 4 + Table 8, Cox model)	Hazard ratio Ab7326/treatment ([2]; Table 10, combined dataset Table 4 + Table 8)
NCC1CN(C(=O)c2c(Nc3ccc(I)cc3F)sc3ncccc23)C1 [UCB-554, [3-(Aminomethyl)azetidin-1-yl]-{2-[(2-fluoro-4-iodophenyl)amino]thieno[2,3-b]pyridin-3-yl}-methanone]	tumour volume is reduced	moderate increase in survival	21 days	2.04	2.50					
Cn1cnc2c(F)c(Nc3ccc(Br)cc3Cl)c(C(=O)NOCCO)cc21 [Selumetinib, 6-(4-bromo-2-chloroanilino)-7-fluoro-N-(2-hydroxyethoxy)-3-methylbenzimidazole-5-carboxamide]	mean tumour volume is reduced		22 days			17 days	17	9 Days and 13 Days and 15 Days and 17 Days (2×) and 20 Days and 32 Days and 33 Days	1.77	1.31
